Measurements published in patent US6964983B2, “Compounds that modulate PPAR activity and methods for their preparation” (Warner-Lambert Company, LLC, priority 2002, dated 2005).

Assays:
hPPARα = target: T1, hPPARα (Homo sapiens, UniProt Q07869); experiment: Transient transfection assay in HepG2 cells, Gal4-hPPARα chimeric receptor, luciferase reporter; assay type: cell-based; conditions: Hep G2-hAlpha EC50, 24 hours incubation; read-out: EC50α nM (Group)
T1 sequence (Q07869 200-468 limits assumed): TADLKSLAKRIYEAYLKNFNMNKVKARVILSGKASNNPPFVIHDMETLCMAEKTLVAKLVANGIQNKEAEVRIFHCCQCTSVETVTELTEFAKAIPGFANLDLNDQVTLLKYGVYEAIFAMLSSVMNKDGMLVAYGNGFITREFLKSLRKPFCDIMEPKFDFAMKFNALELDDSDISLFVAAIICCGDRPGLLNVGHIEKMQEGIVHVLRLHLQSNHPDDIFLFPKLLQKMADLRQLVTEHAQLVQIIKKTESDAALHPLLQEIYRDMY
Description: (§1) 1. Test A. Transient Transfections Assay using the HepG2 Hepatoma Cell Line.
(§2) HepG2 cells were transiently transfected with an expression plasmids encoding hPPARα, hPPARβ or mPPARγ chimeric receptors and a reporter containing the yeast upstream activating sequence (UAS) upstream of the viral E1B promoter controlling a luciferase reporter gene. In addition, the plasmid pRSVβ-gal was used to control for transfection efficiency. HepG2 cells were grown in DMEM supplemented with 10% FBS and 1 μM non-essential amino acid. On the first day, cells were split into 100 mm dishes at 2.5×10^6/dish and incubated overnight at 37° C./5% CO2. On the second day the cells were transiently transfected with plasmid DNA encoding a chimeric receptor, the luciferase reporter gene; and β-gal. For each 100 mm dish, 15 μg of lucifease reporter (PG5E1b) DNA, 15 μg of Gal4-PPAR chimeric receptor DNA, and 1.5 μg of β-gal plasmid DNA were mixed with 1.4 ml of opti-MEM in the tube. 28 μl of LipoFectamine-2000 reagent was added to 1.4 ml of opti-MEM in the tube, and incubate for 5 min at RT. The diluted Lipofectamine-2000 reagent was combined with the DNA mixture, and incubate for 20 min at RT. After fresh medium was added to each 100 mm dish of cells, 2.8 ml of Lipofectamine2000-DNA mixture was added dropwise to the 100 mm dish containing 14 ml of medium, and incubate 37° C. overnight. On day three cells were trypsinized off the 100 mm dishes and re-plated on 96 well plates. Cells were plated at 2.5×10^4 cells per well in 150 μl of media and 50 μl of compound diluted by media was added. The test compound added were in the range from 50 μM to 50 pM. After addition of compounds, the plates were incubated at 37° C. for 24 hours. Subsequently cells were washed with once with 100 μl of PBS, lysed, and processed for measuring luciferase and β-gal activity using Dual-Light luciferase kit from Tropix ®, according to the manufacturer's recommendations, on an EG&G Bethold MicroLumat LB96P luminometer. EC50 values were obtained using the GraphPad Prism™ program.

hPPARβ = target: T2, hPPARβ (Homo sapiens, UniProt Q03181); experiment: Transient transfection assay in HepG2 cells, Gal4-hPPARβ chimeric receptor, luciferase reporter; assay type: cell-based; conditions: Hep G2-hBeta EC50, 24 hours incubation; read-out: EC50β nM (Group)
T2 sequence (Q03181 171-441 limits assumed): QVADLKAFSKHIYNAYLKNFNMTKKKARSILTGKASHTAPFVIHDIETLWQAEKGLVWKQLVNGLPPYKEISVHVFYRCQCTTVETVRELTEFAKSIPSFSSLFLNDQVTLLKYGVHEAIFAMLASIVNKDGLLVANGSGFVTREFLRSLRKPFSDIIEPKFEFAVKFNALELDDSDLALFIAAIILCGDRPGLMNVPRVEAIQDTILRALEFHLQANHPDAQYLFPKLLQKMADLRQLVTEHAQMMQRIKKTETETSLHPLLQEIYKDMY
Description: as §1, §2

melting point | EC50 (hPPARα) [nM] | EC50 (hPPARβ) [nM] | SMILES
186 °C | 500 to 1000 | 2000 to 5000 | Cc1cc(SCc2ccc(-c3ccc(C(F)(F)F)cn3)cc2)c2c(c1OCC(=O)O)CCC2 [Example 27, {5-Methyl-7-[4-(5-trifluoromethyl-pyridin-2-yl)-benzylsulfanyl]-indan-4-yloxy}-acetic acid]
138 to 139 °C | < 300 | < 300 | COc1cc(OCC(=O)O)c(C)cc1SCc1ccc(-c2cccc(C(F)(F)F)c2)cc1 [Example 9, [5-Methoxy-2-methyl-4-(3′-trifluoromethyl-biphenyl-4-ylmethylsulfanyl)-phenoxy]-acetic acid]
113 to 115 °C | > 5000 |  | O=C(O)COc1ccc(SCc2cccc(OCc3ccc(C(F)(F)F)cc3)c2)c2c1CCCO2 [Example 84, {8-[3-(4-Trifluoromethyl-benzyloxy)-benzylsulfanyl]-chroman-5-yloxy}-acetic acid]
145 °C | < 300 |  | COc1cc(OCC(=O)O)c(C)cc1SCc1ccc(OCc2ccc(C(F)(F)F)cc2)cc1 [Example 14, {5-Methoxy-2-methyl-4-[4-(4-trifluoromethyl-benzyloxy)-benzylsulfanyl]-phenoxy}-acetic acid]
116 to 117 °C | 2000 to 5000 | < 300 | O=C(O)COc1ccc(SCc2ccc(OCc3ccc(F)c(C(F)(F)F)c3)cc2)c2c1CCC2 [Example 74, {7-[4-(4-Fluoro-3-trifluoromethyl-benzyloxy)-benzylsulfanyl]-indan-4-yloxy}-acetic acid]
157 to 159 °C | > 5000 | 500 to 1000 | O=C(O)COc1ccc(SCc2cc(-c3ccc(Cl)cc3)on2)c2c1CCC2 [Example 97, {7-[5-(4-Chloro-phenyl)-isoxazol-3-ylmethylsulfanyl]-indan-4-yloxy}-acetic acid]
177 °C | 1000 to 2000 | 1000 to 2000 | Cc1cc(SCc2ccc(-c3ccc(C(F)(F)F)cc3)cc2)c2c(c1OCC(=O)O)CCC2 [Example 28, [5-Methyl-7-(4′-trifluoromethyl-biphenyl-4-ylmethylsulfanyl)-indan-4-yloxy]-acetic acid]
135 to 137 °C | < 300 | < 300 | Cc1cc(SCc2ccc(OCc3ccc(C(C)(C)C)cc3)cc2)ccc1OCC(=O)O [Example 34, {4-[4-(4-tert-Butyl-benzyloxy)-benzylsulfanyl]-2-methyl-phenoxy}-acetic acid]
203 °C (dec.) | < 300 | < 300 | COc1cc(OCC(=O)O)c(C)cc1SCc1ccc(-c2ccc(C(F)(F)F)cc2)nc1 [Example 19, {5-Methoxy-2-methyl-4-[6-(4-trifluoromethyl-phenyl)-pyridin-3-ylmethylsulfanyl]-phenoxy}-acetic acid]
92 to 94 °C | < 300 | < 300 | COc1cc(OCC(=O)O)c(C)cc1SCc1cccc(-c2cccc(OC(F)(F)F)c2)c1 [Example 16, [5-Methoxy-2-methyl-4-(3′-trifluoromethoxy-biphenyl-3-ylmethylsulfanyl)-phenoxy]-acetic acid]
149 to 150 °C | > 5000 | 1000 to 2000 | O=C(O)COc1ccc(SCc2ccc(OCc3ccc(Cl)cc3Cl)cc2)c2c1CCC2 [Example 62, {7-[4-(2,4-Dichloro-benzyloxy)-benzylsulfanyl]-indan-4-yloxy}-acetic acid]
145 °C | 2000 to 5000 |  | O=C(O)COc1ccc(SCc2ccc(OCc3ccc(C(F)(F)F)cc3)cc2)c2c1CCC2 [Example 63, {7-[4-(4-Trifluoromethyl-benzyloxy)-benzylsulfanyl]-indan-4-yloxy}-acetic acid]
154 to 155 °C | 1000 to 2000 | 2000 to 5000 | Cc1cc(SCc2ccc(OCc3ccc(F)cc3)cc2)ccc1OCC(=O)O [Example 57, {4-[4-(4-Fluoro-benzyloxy)-benzylsulfanyl]-2-methyl-phenoxy}-acetic acid]
174 to 176 °C | 1000 to 2000 | 2000 to 5000 | Cc1cc(CCc2ccc(-c3ccc(C(F)(F)F)cc3)cc2)ccc1OCC(=O)O [Example 25, {2-Methyl-4-[2-(4′-trifluoromethyl-biphenyl-4-yl)-ethyl]-phenoxy}-acetic acid]
101 to 103 °C | > 5000 | 1000 to 2000 | Cc1cc(SCc2ccc(OCc3cc(Cl)ccc3Cl)cc2)ccc1OCC(=O)O [Example 59]
132 to 134 °C | 500 to 1000 | 1000 to 2000 | Cc1cc(SCCc2ccc(-c3ccc(C(F)(F)F)cc3)cc2)ccc1OCC(=O)O [Example 22, {2-Methyl-4-[2-(4′-trifluoromethyl-biphenyl-4-yl)-ethylsulfanyl]-phenoxy}-acetic acid]
141 to 142 °C | < 300 | 300 to 500 | Cc1cc(SCc2ccc(OCc3ccc(OC(F)(F)F)cc3)cc2)ccc1OCC(=O)O [Example 35, {2-Methyl-4-[4-(4-trifluoromethoxy-benzyloxy)-benzylsulfanyl]-phenoxy}-acetic acid]
151 to 152 °C | 2000 to 5000 | < 300 | O=C(O)COc1ccc(SCc2ccc(OCc3ccc(Cl)c(C(F)(F)F)c3)cc2)c2c1CCC2 [Example 73, {7-[4-(4-Chloro-3-trifluoromethyl-benzyloxy)-benzylsulfanyl]-indan-4-yloxy}-acetic acid]
139 to 141 °C | 1000 to 2000 | > 5000 | Cc1cc(SCc2ccc(OCc3ccc(F)cc3F)cc2)ccc1OCC(=O)O [Example 31, {4-[4-(2,4-Difluoro-benzyloxy)-benzylsulfanyl]-2-methyl-phenoxy}-acetic acid]
156 to 157 °C | < 300 | 2000 to 5000 | Cc1cc(SCc2ccc(-c3ccc(C(F)(F)F)cn3)cc2)c2c(c1OCC(=O)O)CCCO2 [Example 36, {6-Methyl-8-[4-(5-trifluoromethyl-pyridine-2-yl)-benzylsulfanyl]-chroman-5-yloxy}-acetic acid]
155 to 157 °C | < 300 | < 300 | Cc1cc(SCc2ccc(-c3ccc(C(F)(F)F)cn3)cc2)c2c(c1OCC(=O)O)CCO2 [Example 92, {5-Methyl-7-[4-(5-trifluoromethyl-pyridin-2-yl)-benzylsulfanyl]-2,3-dihydro-benzofuran-4-yxoly}-acetic acid]
143 to 145 °C | 1000 to 2000 | 300 to 500 | Cc1cc(SCc2ccc(OCc3ccc(Cl)cc3Cl)cc2)ccc1OCC(=O)O [Example 32, {4-[4-(2,4-Dichloro-benzyloxy)-benzylsulfanyl]-2-methyl-phenoxy}-acetic acid]
161 to 162 °C | 2000 to 5000 | < 300 | Cc1cc(SCc2ccc(-c3ccc(C(F)(F)F)cc3)cc2)c(Cl)cc1OCC(=O)O [Example 20, [5-Chloro-2-methyl-4-(4′-trifluoromethyl-biphenyl-4-ylmethylsulfanyl)-phenoxy]-acetic acid]
 | < 300 | < 300 | COc1cc(OCC(=O)O)c(C)cc1SCc1cc(-c2ccc(C(F)(F)F)cc2)no1 [Example 46, {5-Methoxy-2-methyl-4-[3-(4-trifluoromethyl-phenyl)-isoxazol-5-ylmethylsulfanyl]-phenoxy}-acetic acid]
 | 500 to 1000 | < 300 | COc1cc(OCC(=O)O)c(C)cc1SCc1ccc(-c2cccc(OC(F)(F)F)c2)cc1 [Example 11, [5-Methoxy-2-methyl-4-(3′-trifluoromethoxy-biphenyl-4-ylmethylsulfanyl)-phenoxy]-acetic acid]
